Assays:
[1] = Steady state fluorescence Zn titration (Stern-Volmer fit); assay type: binding; details: for Stern-Volmer binding constant (KSV): Table 1, with Zn, factor 10^4; for Stern-Volmer constant KSV with Zn^2+: compound 20 μM, Zn^2+ 2.5 to 40 μM, emission 530 nm
Description: The metal chelation ability of the compounds were assessed by UV-Visible absorbance and fluorescence spectroscopy by metal titration experiments. The small molecules were dissolved in HEPES buffer to make concentration of 20 μM and the metal ion (Zn^2+) was titrated with increasing concentration from 2.5 μM to 40 μM with 2 min of incubation between each addition. The change in absorbance and fluorescence spectra of compound was recorded and analysed for metal-small molecules interaction. The data was plotted in Origin (Pro), Version 2022 and analysed for determination of dissociation constant. The absorbance values were fitted using Benesi-Hildebrand equation to elucidate the binding constant of metals with small molecules.
where, KB is the binding or association constant, and A0 and Aα represent the peak absorbance of small molecules in the absence and presence of the highest concentration of metal ion (40 μM). The reciprocal of KB was taken as the dissociation constant, Kd. The change in fluorescence was fitted using Stern-Volmer equation to determine KSV: […]
where, F0 and F are the fluorescence intensities of small molecules in the absence and presence of metal ion, respectively. KSV is the Stern-Volmer quenching constant and [Q] is the concentration of quencher/enhancer (metal ion in this case).
Fluorescence spectroscopy is a reliable method to probe host-probe interactions, wherein the change in wavelength or intensity of emission spectrum is indicative of the strength of complexation. […] The classical Stern-Volmer equation was used to quantify the quenching and measure the Stern-Volmer constant, KSV wherein a higher value of KSV implies ability of the compound to form strong complexation with the host (Zn^2+). […] Due to the good binding affinity of the small molecules towards Zn, the designed small molecules were anticipated to chelate and interfere tau-Zn interaction.

[2] = Isothermal titration calorimetry of small molecule-Zn interaction; assay type: binding; details: for ΔG of binding to Zn, ITC / ΔH (enthalpy) of binding to Zn, ITC / −TΔS (entropy) of binding to Zn, ITC: 298 K; for ΔG / ΔH / −TΔS: Table 1, with Zn
Description: ITC measurements were performed using a Malvern MicroCal-PEAQ ITC machine. Solutions of small molecules (compounds 1a, 1b and 1c) of the present disclosure and ZnCl2 were prepared in 100% DMSO. A revolving syringe was used to inject 26 consecutive 1.5 μL aliquots of Zn^2+ into the small molecules solution to ensure a continual mixing. The ITC cell reference power and temperature were set at […] and 25° C., respectively. To guarantee complete equilibration before the next injection, an interval of 150 s was maintained between subsequent measurements. Obtained isotherms were corrected by the subtraction of heat of dilution (buffer and small molecules). By using a single site binding model in the MicroCal PEAQ-ITC analysis software, nonlinear least squares fitting of the binding isotherms was carried out to estimate the thermodynamic parameters and dissociation constant (Kd).
The thermodynamic parameters of the interactions between small molecules and Zn^2+ were determined by ITC study. ZnCl2 solution in the injection syringe was titrated into compound solution in the sample cell. The heat change was measured and plotted as a function of the molar ratio of small molecules and Zn^2+. […] Right panel depicts the integrated binding isotherms as a function of the binary complex at 298 K. Fitting was obtained from the data points with one set of the binding site model). […] The Kd values determined from ITC validate the results obtained from other binding studies discussed vide supra (lower Kd and higher KSV). Both endothermic and exothermic peaks were observed upon binding of 1c and Zn resulting in a net negative ΔH value, and the data was fitted to exothermic one site binding model. For a reaction to be spontaneous, it must be favored by at least one of the factors, enthalpy or entropy.

tau protein = biological target: T1, tau protein (Homo sapiens, UniProt P10636); assay: Tau intrinsic fluorescence quenching assay; assay type: binding; details: tau 5 μM, compound 250 nM to 25 μM; for Kd: PBS pH 7.4, read-out: One site binding saturation fit Kd with tau
T1 construct: the full-length tau plasmid construct was transformed into E. coli, BL21 strain; inferred from the Ni-NTA purification; made in house; host or cells: E. coli BL21
T1 sequence (P10636 1-441 isoform P10636-8): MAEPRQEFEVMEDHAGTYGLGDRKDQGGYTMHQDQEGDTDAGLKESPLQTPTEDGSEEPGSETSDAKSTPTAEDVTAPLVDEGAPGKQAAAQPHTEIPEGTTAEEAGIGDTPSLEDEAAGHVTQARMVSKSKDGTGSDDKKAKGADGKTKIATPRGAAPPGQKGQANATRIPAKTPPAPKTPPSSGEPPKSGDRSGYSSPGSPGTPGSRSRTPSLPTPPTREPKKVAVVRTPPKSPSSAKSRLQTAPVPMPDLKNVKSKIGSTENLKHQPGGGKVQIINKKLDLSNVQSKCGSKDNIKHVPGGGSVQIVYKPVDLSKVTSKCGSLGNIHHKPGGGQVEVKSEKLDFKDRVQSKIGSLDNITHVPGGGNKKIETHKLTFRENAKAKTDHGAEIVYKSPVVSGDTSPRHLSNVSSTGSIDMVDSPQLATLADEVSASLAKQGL
Description: Tau protein was expressed and purified from E. coli as per known procedures. Briefly, the full-length tau plasmid construct was transformed into E. coli, BL21 strain and cultured in LB broth containing ampicillin ([…]) and chloramphenicol (50 μM) at 37° C. with continuous shaking at 180 rpm overnight. Then 1% of primary culture was transferred to 1 L of LB broth with antibiotics and incubated until it reaches OD of 0.6. The culture was induced with 1 mM IPTG and further cultured for 4 h. Cells were pelleted by centrifugation (7000 rpm) at 4° C. and resuspended in 50 mM phosphate buffer (0.3 M NaCl, 5 mM imidazole and 1 mM of PMSF, pH 8) and boiled to precipitate unwanted proteins for 10-15 min with intermittent agitation. The supernatant containing tau protein was collected and further purified by Ni-NTA affinity column chromatography. The purified tau protein was quantified by Bradford assay, characterised by SDS-PAGE and stored at −80° C. until further use.
Tau was dissolved in PBS buffer pH 7.4 to make 5 μM and titrated with small molecules from 250 nM to 25 μM concentration and fluorescence spectra was recorded by exiting at 274 nm. The emission spectra were plotted and analysed using Origin (Pro), Version 2022 and GraphPad Prism 9.4.0, fitted with one site binding saturation equation to find Kd. Further fluorescence quenching was fitted with Stern-Volmer equation to determine KSV.
The binding of small molecules with tau protein was monitored using tau intrinsic fluorescence spectral changes. […] The change in fluorescence intensity was fitted with one site binding saturation model to determine the Kd values. […] The KSV values were obtained from the Stern-Volmer equation to further quantify the extent of binding. […] This further emphasized the significance of the skeletal template of the modulators for tau interaction, rather than individual substituted aromatic amino acids.

Zn induced tau LLPS = biological target: T2, Zn induced tau LLPS (Homo sapiens, UniProt P10636); assay: DIC microscopy, inhibition of Zn induced tau LLPS; assay type: biochemical; details: tau 10 μM, Zn 40 μM, compound 20 μM added before Zn; Zn alone ~1.3
T2 construct: the full-length tau plasmid construct was transformed into E. coli, BL21 strain; inferred from the Ni-NTA purification; made in house; host or cells: E. coli BL21
T2 sequence (P10636 1-441 isoform P10636-8): as above
Description: (§1) Liquid-liquid phase separation (LLPS) of tau was induced by molecular crowding in LLPS buffer (10 mM HEPES, 100 mM NaCl, 10% PEG 4000 and pH 7.4) and Zn.^32 Tau (10 μM) was suspended in LLPS buffer and added Zn (40 μM) incubate for 10 min to induce LLPS. For inhibition studies the tau in LLPS buffer was treated with small molecules (20 μM) before addition of Zn and for control same volume of vehicle (DMSO) was added. Dissolution samples were prepared by induction of LLPS for 10 min using Zn and followed by addition of small molecules and further incubation of 15 min. The samples were drop-cast (10 μL) on clean glass slides, mount with coverslip and immediately imaged in Olympus FLUOVIEW 3000 microscope in differential interface contrast (DIC) mode with 63× oil immersion objective. The images were acquired in multiple areas and planes to confirm the LLPS formation and its modulation by small molecules. Image analysis was performed by using ImageJ software, plotted normalised droplet size against control and analysed by GraphPad Prism.
(§2) The strong binding interaction of small molecules with Zn and tau encouraged us to evaluate them for modulation of Zn indued LLPS of tau. The ability of small molecules to inhibit tau LLPS and formation of droplets were studied by differential interface contrast (DIC) microscopy (FIG. 4). In the presence of Zn, tau readily undergoes LLPS and formed liquid like droplets within 10 min, as evident from the observed fusion droplets (FIG. 4A and inset). […] The inhibitory effect is in the order of 1c followed by 1b and 1a, which agrees with Zn and tau binding ability of small molecules. The LLPS of tau is through transient weak interactions and we believe that the small molecules with strong multivalent interactions with tau and Zn (chelation) potentially dissolve the phase separated droplets. […] The absorption spectra of 1c in the presence of tau and Zn (independently) and together was recorded. […]

[3] = biological target: T3, Zn induced tau LLPS condensates (Homo sapiens, UniProt P10636); assay: DIC microscopy, dissolution of phase separated tau condensates; assay type: biochemical; details: LLPS induced 10 min with Zn, then compound 15 min; Zn alone 2.26
T3 construct: the full-length tau plasmid construct was transformed into E. coli, BL21 strain; inferred from the Ni-NTA purification; made in house; host or cells: E. coli BL21
T3 sequence (P10636 1-441 isoform P10636-8): as above
Description: as §1, §2

tau and Zn = biological target: T4, tau and Zn (Homo sapiens, UniProt P10636); assay: UV-Visible spectroscopy, preferential binding among tau and Zn; details: absorption spectra with tau, Zn and both
T4 construct: the full-length tau plasmid construct was transformed into E. coli, BL21 strain; inferred from the Ni-NTA purification; made in house; host or cells: E. coli BL21
T4 sequence (P10636 1-441 isoform P10636-8): as above
Description: as §2, with “droplets. To evaluate the reversal effect of small molecules on phase separated droplets, tau LLPS was induced (10 min) and treated with small molecules for 15 min followed by visualization by DIC imaging. […] The droplet size was reduced to less than control in case of 1c treated samples (˜0.66-fold) indicating its ability to inhibit Zn induced tau LLPS. The modulatory effect of 1c prompted to look for its preferential interaction among tau and Zn.” for “droplets.”

Stern-Volmer binding constant (KSV) [1] [× × 10^4] | ΔG of binding to Zn, ITC [2] [kJ/mol] | ΔH (enthalpy) of binding to Zn, ITC ([2]; unit not given) | −TΔS (entropy) of binding to Zn, ITC ([2]; unit not given) | Stern-Volmer KSV with tau (tau protein) [M⁻¹] | Kd (tau protein) [µM] | droplet size (normalized to control), inhibition of LLPS (Zn induced tau LLPS) [fold] | droplet size (normalized to control), dissolution of condensates [3] [fold] | ΔH (enthalpy) of binding to Zn, ITC [2] [kJ/mol] | −TΔS (entropy) of binding to Zn, ITC [2] [kcal/mol] | Compound | Stern-Volmer constant KSV with Zn^2+ [1] | ΔG ([2]; unit not given) | ΔH ([2]; unit not given) | −TΔS ([2]; unit not given) | preferential interaction among tau and Zn (tau and Zn)
0.06 | -14.6 | −13.1±0.13 | 9.59 | 190000 | 2.88 ± 0.51 | ~1.19 | ~1.1 |  |  | O=C1N[C@@H](Cc2ccccc2)C(=O)N[C@H]1CCCCN1C(=O)c2cccc3c(N(Cc4ccccn4)Cc4ccccn4)ccc(c23)C1=O [Compound 1a, 2-(4-((2S,5S)-5-benzyl-3,6-dioxopiperazin-2-yl)butyl)-6-(bis(pyridin-2-ylmethyl)amino)-1H-benzo[de]isoquinoline-1,3(2H)-dione] | 0.06×10^4 | −3.48 | −13.1 | 9.59 | 
1.7 | -24.2 |  |  | 160000 | 1.74 ± 0.17 | ~1.12 | ~1.6 | -2.31 ± 0.234 | -5.23 | O=C1N[C@@H](Cc2ccc(O)cc2)C(=O)N[C@H]1CCCCN1C(=O)c2cccc3c(N(Cc4ccccn4)Cc4ccccn4)ccc(c23)C1=O [Compound 1b, 6-(bis(pyridin-2-ylmethyl)amino)-2-(4-((2S,5S)-5-(4-hydroxybenzyl)-3,6-dioxopiperazin-2-yl)butyl)-1H-benzo[de]isoquinoline-1,3(2H)-dione] | 1.7×10^4 | −5.78 | −0.551 | −5.23 | 
1.7 | -27 |  |  | 150000 | 3.95 ± 0.32 | ~1 | ~0.66 | -2.92 ± 0.933 | -5.75 | O=C1N[C@@H](Cc2c[nH]c3ccccc23)C(=O)N[C@H]1CCCCN1C(=O)c2cccc3c(N(Cc4ccccn4)Cc4ccccn4)ccc(c23)C1=O [Compound 1c, 2-(4-((2S,5S)-5-((1H-indol-3-yl)methyl)-3,6-dioxopiperazin-2-yl)butyl)-6-(bis(pyridin-2-ylmethyl)amino)-1H-benzo[de]isoquinoline-1,3(2H)-dione] | 1.7×10^4 | −6.45 | −0.693 | −5.75 | preferential interaction of 1c with tau over Zn

From patent US20260070890A1, “MODULATORS OF TAU LIQUID-LIQUID PHASE SEPARATION AND METHODS THEREOF” (JAWAHARLAL NEHRU CENTRE FOR ADVANCED SCIENTIFIC RESEARCH, priority 2023, published 2026)
